Patent US11744859B2, “Compositions and methods for parenteral administration of therapeutic agents” (EpicentRx, Inc., priority 2017, dated 2023)

Experiments:
[1] = in vivo; cited from earlier work
[2] = tested on: human lung cancer cells A549; assay: xenografted A549 lung tumor in mice, tumor volume; type: in vivo; conditions: 50 mg/kg, twice in one week
Description: FIG. 1 depicts activity of control, carboplatin (Carbo, 50 mg/kg), and whole blood mixed with carboplatin (Blood-mix-Carbo, either 50 mg/kg or 100 mg/kg) in treating xenografted A549 lung tumor, as measured by tumor volume after each treatment.
In this example, human lung cancer cells A549 were xenografted to mice.

[3] = tested on: human colorectal HT-29 cancer cells; conditions: 5 mg/kg, twice a week for three weeks
Description: In this example, human colorectal HT-29 cancer cells will be xenografted to mice.

sepsis model mice (CLP) = assay: CLP sepsis model mice: survival and live bacterial count in blood; type: in vivo, BALB/c mice; conditions: 24 hour blood samples from septic mice; 25 mg/kg
Description: Sepsis model: twenty BALB/c mice (Jackson Labs; 6-8 weeks) were made septic by CLP. Briefly, mice were anesthetized isoflurane (5% induction and 2% maintenance), and subjected to laparotomy. The cecum was exteriorized and ligated distal to the ileocecal valve without causing intestinal obstruction. The cecum was then punctured twice with either a 21 gauge needle, and stool was gently extruded. Lastly, the abdomen was closed 1 mL of saline was injected.

[4] = tested on: human HT-29 colorectal cancer cells; assay: xenografted HT-29 colorectal tumor in mice, tumor volume; type: in vivo; conditions: 12 mg/kg, one time
Description: FIG. 5 depicts activity of control, oxaliplatin (L-OHP, 12 mg/kg), and whole blood mixed with oxaliplatin (Blood-mix-L-OHP, either 12 mg/kg or 24 mg/kg) in treating xenografted HT-29 colorectal tumor, as measured by tumor volume over time (0-40 days) after each treatment.

[5] = tested on: MCF7/Taxol (Taxol resistance line); assay: orthotopically implanted MCF7/Taxol human breast carcinoma in mice, tumor volume; type: in vivo, athymic mice (nu/nu); conditions: either 10 mg/kg or 30 mg/kg, twice per week
Description: (§1) 6-week-old-female athymic mice (nu/nu) were implanted orthotopically with 1×10^7 cells/mL human breast carcinoma cells MCF7 or MCF/Taxol (Taxol resistance line) into their mammary fat pad. […] The treatments started when tumors were 100 mm^3. The paclitaxel blood mixes were prepared by incubating whole blood with paclitaxel and an anticoagulant (CPD) for 30 minutes.

[6] = tested on: human breast carcinoma cells MCF7; assay: orthotopically implanted MCF7 human breast carcinoma in mice, tumor volume; type: in vivo, athymic mice (nu/nu); conditions: either 10 mg/kg or 30 mg/kg, twice per week
Description: as §1

Structure (SMILES): O=P1(N(CCCl)CCCl)NCCCO1 (stereo not drawn) [Cyclophosphamide]
- elimination time of the drug [1]: 3 to 12 h

Structure (SMILES): CC[C@@]1(O)C(=O)OCc2c1cc1n(c2=O)Cc2cc3c(CN(C)C)c(O)ccc3nc2-1 [Topotecan]
- elimination time of the drug [1]: 2 to 3 h

Structure (SMILES): N.N.O=C([O-])C1(C(=O)[O-])CCC1.[Pt+2] [carboplatin]
- tumor volume compared to control [2]: tumor volume was reduced

Structure (SMILES): COc1cccc2c1C(=O)c1c(O)c3c(c(O)c1C2=O)C[C@@](O)(C(=O)CO)C[C@@H]3O[C@H]1C[C@H](N)[C@H](O)[C@H](C)O1 [doxorubicin]
- tumor volume compared to control [3]: tumor volume is reduced

Structure (SMILES): O=P1(NCCCl)OCCCN1CCCl (stereo not drawn) [ifosfamide]
- elimination time of the drug [1]: 7 to 15 h

Structure (SMILES): C[C@@H](O)[C@H]1C(=O)N2C(C(=O)O)=C(SCCN=CN)C[C@H]12 [imipenem]
- live bacterial count (sepsis model mice (CLP)): 7.4±0.45 log CFU/mL

Structure (SMILES): O=C1[O][Pt]2([NH][C@@H]3CCCC[C@H]3[NH]2)[O]C1=O [oxaliplatin]
- tumor volume compared to control [4]: tumor volume was reduced

Structure (SMILES): CC(=O)O[C@H]1C(=O)[C@@]2(C)[C@H]([C@H](OC(=O)c3ccccc3)[C@]3(O)C[C@H](OC(=O)[C@H](O)[C@@H](NC(=O)c4ccccc4)c4ccccc4)C(C)=C1C3(C)C)[C@]1(OC(C)=O)CO[C@@H]1C[C@@H]2O [paclitaxel]
- tumor volume compared to control [5]: tumor volume was reduced
- tumor volume compared to control [6]: tumor volume was reduced
